Measured values from article PMC7143758, “Highly Substituted Phenol Derivatives with Nitric Oxide Inhibitory Activities from the Deep-Sea-Derived Fungus Trichobotrys effuse FS524” (Marine Drugs, 2020).

How the values were obtained:
[1] = test system: NO production in LPS-induced RAW 264.7 macrophages; test: Inhibition of nitric oxide (NO) production in LPS-induced macrophages (Griess); type: cell-based, mouse; details: for IC50: LPS (1 μg/mL) 24 h, RAW 264.7 mouse macrophages, Griess, mean ± SD, triplicate; for inhibitory activities against NO production (in words): LPS-induced RAW 264.7 macrophages
Experimental: (§1) Compounds 1–6 were evaluated for the inhibitory activity of nitric oxide (NO) production in lipopolysaccharide (LPS)-induced RAW 246.7 mouse macrophages. The cells (180 μL) with a density of 5 × 10^5 cells/mL of media on a 96-well plate were put under 37 °C at a 5% CO2 condition. After a 24 h preincubation, the seeded cells were treated with gradient dilutions of 1-6 with a maximum concentration of 100 μM, followed by stimulation with LPS (1 μg/mL) for 24 h. Then 50 μL cell culture supernatant solution was moved to a new plate that contained NO detection Griess A (50 μL) and Griess B (50 μL). Finally, the absorbance was measured at 540 nm. Aminoguanidine was used as a positive control and all data were obtained in triplicate. The viability of RAW264.7 cells was evaluated according to the SRB method simultaneously to exclude the interference of the cytotoxicity of 1–6. The RAW264.7 cells were purchased from the Cell Bank of the Chinese Academy of Sciences.

[2] = Cytotoxicity / viability of macrophages (SRB method); type: cell-based, mouse; details: mouse, RAW264.7 macrophage cells, RAW264.7 macrophages
Experimental: as §1

[3] = test system: RAW264.7 cells; test: as above; type: cell-based, mouse; details: RAW264.7 macrophages
Experimental: as §1

SMILES	IC50 ([1]; Mus musculus, RAW264.7, 24 h) [µM]	IC50 at 24 h [2] [µM]	IC50 [1] [µM]	IC50 [3] [µM]	inhibitory activities against NO production (in words) [1]	melting point [°C]
CCCc1cc2c(c(O)c1CO)COC2=O [Compound 6, Trieffusol F]	111 ± 4.6	> 200				
C/C=C/C(=O)c1c(OC)cc2c(c1O)CCO2 [Compound 5, Trieffusol E]	65.5 ± 1.3	> 200				
N=C(N)NN [Aminoguanidine, reference compound]			24.8 ± 0.8	> 200		
CCc1c(O)cc2c(c1O)C(=O)C[C@H](C)O2 [Compound 4b, (−)-Trieffusol D]	55.9 ± 1.6	> 200				
CCc1c(O)cc2c(c1O)C(=O)CC(C)O2 (stereo not shown) [Compound 4, Trieffusol D]	51.9 to 55.9	> 200			moderate inhibitory activities	
CCc1c(O)cc2c(c1O)C(=O)C[C@@H](C)O2 [Compound 4a, (+)-Trieffusol D]	54.3 ± 2.2	> 200				
CCC1(O)C(=O)C2=C(CC1O)OC1=C(C(=O)C(O)(CC)C(O)C1)C2c1ccc(O)cc1 (stereo not shown) [Compound 2, Trieffusol B]			108 ± 3	> 200		
CCC1(O)C(=O)C=C(OCCc2ccc(O)cc2)CC1O (stereo not shown) [Compound 3, Trieffusol C]	51.9 to 55.9	> 200	51.9 ± 1.4		moderate inhibitory activities	
CCC1(O)C(=O)C2=C(CC1O)OC1=C(C(=O)C(O)(CC)C(O)C1)C2c1ccc(O)cc1 (stereo not shown) [Compound 1, Trieffusol A]	> 200	> 200				149 to 150
